Where two headings read alike, the source gives them in different places.
Key:
CDK2/Cyclin E1 = target: T1, CDK2/Cyclin E1 (Homo sapiens, UniProt P24941); assay: CDK2 kinase antagonistic activity assay (TR-FRET); type: biochemical
T1 construct: purchased Invitrogen PV6296
Description: (§1) Compounds were dissolved in DMSO and serially diluted 3-fold to generate 11 concentrations. 100 nL of each compound was added to 384-well plates, followed by the addition of 5 µL of 2× CDK2/Cyclin E1 or CDK1/Cyclin B enzyme mixed solution. 5 µL of buffer (50 mM Hepes (pH 7.5), 10 mM MgCl2, 1 mM EDTA, 0.01% Brij-35, 2 mM DTT (prepared freshly)) was added to the complete inhibition control wells. The plates were centrifuged at 1000 rpm for 30 s and incubated at 23 °C for 15 min. Then, 5 µL of 2× MLight-MBP peptide (containing 10 µM ATP) was added to each well of each assay plate. The plates were centrifuged again at 1000 rpm for 30 s and incubated at 23 °C for 90 min.
After the incubation was completed, the reaction was stopped with a detection buffer containing 15 mM EDTA and 2 nM Eu-anti-P-MBP antibody. After centrifugation at 1000 rpm for about 1 min, the plates were incubated at 23 °C for 60 min and read on Perkin Elmer Envision. The TR-FRET ratio (value at 665 nm/value at 615 nm) was automatically calculated by Envision.
(§2) The IC50 values of the compounds were calculated using GraphPad Prism nonlinear fitting equation. Table 1. Kinase activity assay

HCT116 cells = assay: Antagonistic effect assay against HCT116 cell proliferation (CellTitle-Glo); type: cell-based; conditions: Homo sapiens, HCT-116, 72 h treatment, 0.01-10.00 µM, read-out: Antiproliferative IC50
Description: Frozen HCT116 cells were rapidly transferred from liquid nitrogen to a 37 °C water bath and rapidly shaken for thawing. The cell suspension was transferred to a 15 mL centrifuge tube and centrifuged at 1500 rpm for 5 min, and the supernatant was discarded. The cell pellet was resuspended in RPMI-1640 complete medium (containing 10% fetal bovine serum and 1% penicillin/streptomycin) and transferred to a cell culture dish containing 10 mL of medium. The cells were cultured in an incubator at 37 °C/5% CO2. The cells were passaged after adhesion to the wall.
HCT116 cells in the logarithmic growth phase and in good condition were taken, digested with a trypsin solution, resuspended in a certain amount of RPMI-1640 complete medium to form a single-cell suspension, counted on a cell counting plate, and seeded into a 96-well white plate at a density of 800 cells/well. The plate was left to stand for 5 min and then incubated in an incubator at 37 °C/5% CO2 overnight. The next day, the cells were treated with the compound at different concentrations, and the control group was treated with DMSO at the corresponding concentration. The compound, dissolved in DMSO, was diluted in RPMI-1640 complete medium at a ratio of 1:1000 to obtain final concentrations of 10.00 µM, 3.33 µM, 1.11 µM, 0.37 µM, 0.12 µM, 0.04 µM, and 0.01 µM. Each group was set up with 3 replicate wells, and 100 µL of the treatment solution was added to each well. The plate was incubated in an incubator at 37 °C/5% CO2 for 72 h.
After 72 h of treatment, the CellTitle-Glo assay was performed. 100 µL of CellTitle-Glo solution was added to each well of the control and treatment groups. The plate was mixed on an oscillator for 2 min to induce cell lysis. The 96-well plate was incubated at room temperature for 10 min to stabilize the luminescence signal value. The luminescence signal was measured using a microplate reader. The DMSO-treated cell group was used as the control group, and 50% inhibitory concentration (IC50) was calculated according to the median effect equation as follows: [formula]
The IC50 values of the compounds were calculated using GraphPad Prism nonlinear fitting equation. Table 2. Results for the inhibitory effect of the compounds of the present disclosure on HCT116 cell proliferation

CDK1/Cyclin B = target: T2, CDK1/Cyclin B (Homo sapiens, UniProt P06493); assay: CDK1 kinase activity assay (TR-FRET); type: biochemical
T2 construct: purchased Invitrogen PR4768C
T2 sequence (P06493 whole entry): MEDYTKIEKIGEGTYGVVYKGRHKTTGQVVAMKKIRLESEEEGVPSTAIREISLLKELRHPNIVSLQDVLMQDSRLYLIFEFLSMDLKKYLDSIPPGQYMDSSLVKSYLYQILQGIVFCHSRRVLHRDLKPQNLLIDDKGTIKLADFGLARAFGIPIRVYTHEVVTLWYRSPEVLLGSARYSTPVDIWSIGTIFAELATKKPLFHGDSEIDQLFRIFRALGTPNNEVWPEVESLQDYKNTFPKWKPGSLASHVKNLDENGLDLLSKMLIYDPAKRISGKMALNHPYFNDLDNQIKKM
T2 sequence (P14635 whole entry partner): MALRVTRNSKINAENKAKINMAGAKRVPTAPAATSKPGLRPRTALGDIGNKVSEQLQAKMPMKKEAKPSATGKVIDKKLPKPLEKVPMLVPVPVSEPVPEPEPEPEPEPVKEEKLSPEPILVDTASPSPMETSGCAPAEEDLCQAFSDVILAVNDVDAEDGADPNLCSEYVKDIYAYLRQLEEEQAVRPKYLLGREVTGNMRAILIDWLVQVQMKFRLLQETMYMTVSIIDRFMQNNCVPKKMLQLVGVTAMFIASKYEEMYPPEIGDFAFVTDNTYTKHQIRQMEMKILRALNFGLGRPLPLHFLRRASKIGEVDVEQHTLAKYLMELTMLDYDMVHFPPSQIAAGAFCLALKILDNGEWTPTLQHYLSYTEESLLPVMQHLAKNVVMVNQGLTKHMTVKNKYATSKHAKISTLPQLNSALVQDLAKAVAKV
Description: as §1
After the incubation was completed, the reaction was stopped with a detection buffer containing 15 mM EDTA and 2 nM Eu-anti-P-MBP antibody. After centrifugation at 1000 rpm for about 1 min, the plates were incubated at 23 °C for 60 min and read on Perkin Elmer Envision.
as §2

[1] = Permeability and transporter substrate evaluation, Caco-2 monolayer; type: in vitro ADME; conditions: human, Caco-2, 2.00 µM, 120 min
Description: Cell: Caco-2 cells Instrument: water purification equipment, ELGA LabWate; biosafety cabinet, Nuaire; thermostatic CO2 incubator, Thermo; microplate reader, PerkinElmer; LC-MS/MS, AB SCIEX. Method: The purpose of this study was to determine the two-way permeability of the compounds and evaluate whether they are effluxed and transported by P-glycoprotein (P-gp) using a Caco-2 monolayer cell model. In the experiment, Caco-2 cells were seeded into a 96-well cell plate and cultured for 24 consecutive days for the transport experiment. The compounds were administered bidirectionally at a concentration of 2.00 µM, with or without verapamil. After 120 min of incubation, the samples at the apical end A and the basal end B were collected. The content of the test samples in each sample was measured using the liquid chromatography-tandem mass spectrometry (LC-MS/MS) method. The apparent permeability coefficient and the efflux rate were calculated. Two experimental systems were used successively in this part, with the reference compound (PF-07104091) included. Table 4. Permeability test results

[2] = In-vitro liver microsomal stability, human; type: in vitro ADME; conditions: human liver microsomes 0.5 mg/mL, 1 µM, NADPH 1 mM, 37 °C
Description: (§3) Method: The metabolic stability of test substances was evaluated by using human, dog, and SD rat liver microsomes. The test substances were incubated with liver microsomes from different species and NADPH in a water bath at 37 °C. In the incubation system, the final concentration of the test or control sample was 1 µM, the final concentration of liver microsomes was 0.5 mg/mL, the final concentration of NADPH was 1 mM, and the final concentration of MgCl2 was 3 mM. At designated time points (5 min, 10 min, 20 min, 30 min, and 60 min), the reaction was stopped by adding a cold acetonitrile solution containing tolbutamide (at a concentration of 200 ng/mL) as an internal standard. For the 0-min sample, the stop solution was added before the addition of the NADPH working solution. Testosterone and dextromethorphan were used as positive control samples in the same conditions to assess the stability and reliability of the system. After sample pretreatment, semiquantitative analysis was performed using the LC-MS/MS method. The retention times of the analytes and internal standard, the acquisition of chromatograms and the integration of chromatograms were processed using software Analyst (AB Sciex, Framingham, Massachusetts, USA). The remaining percentage of the test samples after 60 min of incubation was calculated, and the test results are shown in Table 3. Table 3. Test data for the compounds of the present disclosure in human, dog, and rat liver microsomes

[3] = In-vitro liver microsomal stability, rat; type: in vitro ADME; conditions: SD rat liver microsomes 0.5 mg/mL, 1 µM, NADPH 1 mM, 37 °C
Description: as §3

[4] = TR-FRET, peptide mix containing 10 µM ATP, 90 min at 23 °C, read-out: CDK2/Cyclin E1 IC50
[5] = TR-FRET, peptide mix containing 10 µM ATP, 90 min at 23 °C, read-out: CDK1/Cyclin B1 IC50
[6] = Caco-2, Table 5 experimental system
[7] = Caco-2, Table 4 experimental system

Compound | IC50 (CDK2/Cyclin E1; [4]) [nM] | IC50 (HCT116 cells) [nM] | IC50 (CDK1/Cyclin B; [5]) [nM] | also measured
COCc1cc(C(=O)Nc2cnc([C@H]3CC[C@@H](OC(=O)NC(C)C)C3)s2)n(C)n1 [Compound 36] | > 1000 |  |  | 
CC(C)NC(=O)O[C@@H]1CC[C@H](c2cc(Nc3ccc(N4CCN(CC(F)(F)F)CC4)cc3)n[nH]2)C1 [Compound 128] |  | 9950 |  | IC50 (CDK2/Cyclin E1): 12.8 nM
C=C(C)c1ccncc1O[C@@H]1CC[C@H](c2cc(NC(=O)Cc3ccc(N4CCCC4=O)cc3)n[nH]2)C1 [Compound 26] | 0.92 | 388 | 0.27 | 
CC(C)NC(=O)O[C@@H]1CC[C@H](c2cc(Nc3ccc(C4CCN(C)CC4)cn3)n[nH]2)C1 [Compound 51] | 6.9 | 3530 |  | IC50 (CDK1/Cyclin B): 154 nM
CC(C)NC(=O)O[C@@H]1CC[C@H](c2cc(Nc3ccc(CN4CCNCC4)cc3)n[nH]2)C1 [Compound 136] | 5.53 | 8430 | 1020 | 
CC(C)NC(=O)O[C@@H]1CC[C@H](c2cc(Nc3ccc(CN4CCN(C)CC4)c(F)c3)n[nH]2)C1 [Compound 134] | 2.14 | 1130 |  | IC50 (CDK1/Cyclin B): 664 nM; Papp A→B at 2 h, 2 µM [1, 6]: 7.08 ×10⁻⁶ cm/s; Papp B→A at 2 h, 2 µM [1, 6]: 23.4 ×10⁻⁶ cm/s; efflux ratio at 2 h, 2 µM [1, 6]: 3.3
CC1(C)CCN1C(=O)O[C@@H]1CC[C@H](c2cc(NC(=O)Cc3cccc(P(C)(C)=O)c3)n[nH]2)C1 [Compound 23] | 5.01 |  | 1850 | 
CC1(C)CCN1C(=O)O[C@@H]1CO[C@H](c2cc(NC(=O)Cc3cccc(P(C)(C)=O)c3)n[nH]2)C1 [Compound 30] | 8.22 |  |  | 
Cn1nc(CS(C)(=O)=O)cc1C(=O)Nc1cc([C@H]2CC[C@@H](OC(=O)N3CCC3(C)C)C2)[nH]n1 [Compound 16] | 0.16 | 847 |  | IC50 (CDK1/Cyclin B): 3.07 nM
C=C(C)c1ccncc1O[C@@H]1CO[C@H](c2cc(NC(=O)Cc3cccc(P(C)(C)=O)c3)n[nH]2)C1 [Compound 31] | 23.6 |  | 496 | 
COCc1cc(C(=O)Nc2[nH]nc3c2C[C@@H](OC(=O)NC(C)C)CC3)n(C)n1 [Compound 41] | > 1000 |  |  | 
CC(C)NC(=O)O[C@@H]1CC[C@H](c2cc(Nc3ccc(N4CCN(C)CC4)cn3)n[nH]2)C1 [Compound 49] | 10.7 | 1300 |  | IC50 (CDK1/Cyclin B): 724 nM; Papp A→B at 2 h, 2 µM [1, 6]: 2.4 ×10⁻⁶ cm/s; Papp B→A at 2 h, 2 µM [1, 6]: 12.2 ×10⁻⁶ cm/s; efflux ratio at 2 h, 2 µM [1, 6]: 5.09
COCc1cc(C(=O)Nc2cc(C3CCC(OC(=O)NC(C)C)C3)[nH]n2)n(C)n1 (stereo not drawn) [PF-07104091, reference compound] |  |  |  | Papp A→B at 2 h, 2 µM [1, 7]: 0.106 ×10⁻⁶ cm/s; Papp B→A at 2 h, 2 µM [1, 7]: 25.5 ×10⁻⁶ cm/s; efflux ratio at 2 h, 2 µM [1, 7]: 241; Papp A→B at 2 h, 2 µM [1, 6]: 4.3 ×10⁻⁶ cm/s; Papp B→A at 2 h, 2 µM [1, 6]: 37 ×10⁻⁶ cm/s; efflux ratio at 2 h, 2 µM [1, 6]: 8.57
CC(C)NC(=O)O[C@@H]1CC[C@H](c2cc(NC(=O)c3cc(CS(=O)(=O)C4CC4)nn3C)n[nH]2)C1 [Compound 13] | 3.37 | 2150 |  | IC50 (CDK1/Cyclin B): 48.2 nM; Remaining amount% at 60 min Human [2]: 80.0%; Remaining amount% at 60 min Rat [3]: 71.2%
COCc1cc(C(=O)Nc2cc([C@H]3CC[C@@H](OC(=O)NC(C)(C)C#N)C3)[nH]n2)n(C)n1 [Compound 5] |  | > 10000 | 845 | 
CCN1CCN(Cc2ccc(Nc3cc([C@H]4CC[C@@H](OC(=O)NC(C)C)C4)[nH]n3)cc2)CC1 [Compound 137] | 3.74 | 1510 | 976 | 
CC(C)NC(=O)O[C@@H]1CC[C@H](c2cc(Nc3ccc(N4CCN(CC(F)F)CC4)cc3)n[nH]2)C1 [Compound 127] | 12.5 | 9800 |  | 
COCc1cc(C(=O)Nc2nnc([C@H]3CC[C@@H](OC(=O)NC(C)C)C3)s2)n(C)n1 [Compound 42] | > 1000 |  |  | 
CC1(C)CCN1C(=O)O[C@@H]1CC[C@H](c2cc(NC(=O)Cc3ccc(N4CCCC4=O)cc3)n[nH]2)C1 [Compound 24] | 2.58 |  | 589 | Remaining amount% at 60 min Human [2]: 15.4%; Remaining amount% at 60 min Rat [3]: 22.8%
CCS(=O)(=O)Cc1cc(C(=O)Nc2cc([C@H]3CC[C@@H](OC(=O)NC(C)C)C3)[nH]n2)n(C)n1 [Compound 12] | 0.61 | 1860 | 28.5 | 
CC(C)NC(=O)O[C@@H]1CC[C@H](c2cc(NC3CCN(S(C)(=O)=O)CC3)n[nH]2)C1 [Compound 8] |  | > 10000 | 3110 | 
C=C(C)c1ccncc1O[C@@H]1CC[C@H](c2cc(NC(=O)Cc3cccc(P(C)(C)=O)c3)n[nH]2)C1 [Compound 25] | 3.09 |  | 11.2 | 
